Numbers after ± are expanded uncertainties.
Assay: wn = mass fraction of the nth substance listed
Conditions: Gas, Burnett expansion method

FCC(F)(F)F [1,1,1,2-tetrafluoroethane] + CCC
Conditions	mass density [kg/m3]
304.25 K, 324.7 kPa, w2 = 0.45	8.75837 ± 0.59
304.25 K, 423.5 kPa, w2 = 0.45	11.6666 ± 0.61
304.25 K, 550.2 kPa, w2 = 0.45	15.5404 ± 0.65
304.25 K, 710 kPa, w2 = 0.45	20.7007 ± 0.7
306.96 K, 235.2 kPa, w2 = 0.65	5.2834 ± 0.47
306.96 K, 309.8 kPa, w2 = 0.65	7.0255 ± 0.48
306.96 K, 406.3 kPa, w2 = 0.65	9.3418 ± 0.5
306.96 K, 530 kPa, w2 = 0.65	12.4219 ± 0.52
306.96 K, 1095.4 kPa, w2 = 0.55	36.0371 ± 0.58
306.97 K, 260.5 kPa, w2 = 0.55	6.5188 ± 0.55
306.97 K, 673.4 kPa, w2 = 0.55	20.3802 ± 0.73
306.97 K, 686.8 kPa, w2 = 0.65	16.5173 ± 0.56
306.97 K, 865 kPa, w2 = 0.55	27.1004 ± 0.8
306.97 K, 880.8 kPa, w2 = 0.65	21.9632 ± 0.62
306.98 K, 343.1 kPa, w2 = 0.55	8.6681 ± 0.53
306.98 K, 449.3 kPa, w2 = 0.55	11.5262 ± 0.69
306.98 K, 519.6 kPa, w2 = 0.55	15.3262 ± 0.82
307 K, 1113.5 kPa, w2 = 0.65	29.2029 ± 0.67
307.04 K, 1304.3 kPa, w2 = 0.6	37.3883 ± 0.78
307.05 K, 823.4 kPa, w2 = 0.6	21.1446 ± 0.65
307.06 K, 286.9 kPa, w2 = 0.6	6.763 ± 0.49
307.06 K, 376.9 kPa, w2 = 0.6	8.993 ± 0.51
307.06 K, 492.8 kPa, w2 = 0.6	11.9584 ± 0.55
307.06 K, 640 kPa, w2 = 0.6	15.901 ± 0.59
307.06 K, 1046.1 kPa, w2 = 0.6	28.116 ± 0.73
308.12 K, 266.9 kPa, w2 = 0.5	6.72365 ± 0.55
308.12 K, 346.4 kPa, w2 = 0.5	8.95632 ± 0.58
308.12 K, 447.5 kPa, w2 = 0.5	11.9301 ± 0.61
308.12 K, 577.6 kPa, w2 = 0.5	15.8911 ± 0.63
308.12 K, 742.5 kPa, w2 = 0.5	21.1679 ± 0.68
308.13 K, 944.9 kPa, w2 = 0.5	28.196 ± 0.75
308.14 K, 1188.3 kPa, w2 = 0.5	37.5563 ± 0.73
308.15 K, 263.5 kPa, w2 = 0.45	6.89941 ± 0.55
308.2 K, 1234.2 kPa, w2 = 0.45	38.5343 ± 0.88
308.21 K, 980.9 kPa, w2 = 0.45	28.9282 ± 0.75
308.22 K, 346.6 kPa, w2 = 0.45	9.18817 ± 0.56
308.22 K, 454.6 kPa, w2 = 0.45	12.2393 ± 0.58
308.22 K, 592.6 kPa, w2 = 0.45	16.3032 ± 0.62
308.22 K, 766.7 kPa, w2 = 0.45	21.7165 ± 0.67
308.23 K, 960.1 kPa, w2 = 0.4	29.795 ± 0.8
308.24 K, 751.6 kPa, w2 = 0.4	22.3672 ± 0.71
308.24 K, 1208.1 kPa, w2 = 0.4	39.6876 ± 0.86
308.25 K, 447.1 kPa, w2 = 0.4	12.6056 ± 0.62
308.25 K, 581.8 kPa, w2 = 0.4	16.7913 ± 0.66
308.26 K, 197.5 kPa, w2 = 0.4	5.33332 ± 0.57
308.26 K, 260.1 kPa, w2 = 0.4	7.10429 ± 0.58
308.26 K, 341.6 kPa, w2 = 0.4	9.46322 ± 0.59
311.01 K, 747.3 kPa, w2 = 0.65	17.8403 ± 0.56
311.01 K, 956.7 kPa, w2 = 0.65	23.7227 ± 0.63
311.01 K, 1206.7 kPa, w2 = 0.65	31.545 ± 0.68
311.02 K, 256.8 kPa, w2 = 0.65	5.8063 ± 0.44
311.02 K, 338 kPa, w2 = 0.65	7.5979 ± 0.46
311.02 K, 383.5 kPa, w2 = 0.55	9.3582 ± 0.53
311.02 K, 443.1 kPa, w2 = 0.65	10.0895 ± 0.49
311.02 K, 500.4 kPa, w2 = 0.55	12.444 ± 0.55
311.02 K, 577.7 kPa, w2 = 0.65	13.4164 ± 0.52
311.02 K, 837.9 kPa, w2 = 0.55	22.003 ± 0.64
311.02 K, 1067.2 kPa, w2 = 0.55	29.258 ± 0.72
311.02 K, 1334.9 kPa, w2 = 0.55	38.9056 ± 0.82
311.03 K, 650.6 kPa, w2 = 0.55	16.547 ± 0.58
311.06 K, 1343.8 kPa, w2 = 0.6	37.8297 ± 0.76
311.07 K, 294.6 kPa, w2 = 0.6	6.8432 ± 0.49
311.07 K, 386.9 kPa, w2 = 0.6	9.1 ± 0.5
311.07 K, 505.8 kPa, w2 = 0.6	12.1 ± 0.53
311.07 K, 657.2 kPa, w2 = 0.6	16.0896 ± 0.56
311.07 K, 846.4 kPa, w2 = 0.6	21.3948 ± 0.62
311.07 K, 1076.1 kPa, w2 = 0.6	28.4489 ± 0.7
312.09 K, 1147.3 kPa, w2 = 0.4	36.0778 ± 0.85
312.09 K, 1427.9 kPa, w2 = 0.4	48.057 ± 0.94
312.1 K, 240.2 kPa, w2 = 0.4	6.45834 ± 0.57
312.1 K, 415.1 kPa, w2 = 0.4	11.4592 ± 0.6
312.1 K, 542.2 kPa, w2 = 0.4	15.2643 ± 0.63
312.1 K, 703.7 kPa, w2 = 0.4	20.3326 ± 0.67
312.1 K, 904.5 kPa, w2 = 0.4	27.0838 ± 0.74
312.11 K, 316.2 kPa, w2 = 0.4	8.60266 ± 0.58
312.14 K, 1384.5 kPa, w2 = 0.45	44.9611 ± 0.88
312.16 K, 1108.9 kPa, w2 = 0.45	33.7517 ± 0.82
312.17 K, 679.1 kPa, w2 = 0.45	19.022 ± 0.65
312.17 K, 873 kPa, w2 = 0.45	25.3381 ± 0.72
312.18 K, 403.4 kPa, w2 = 0.45	10.7201 ± 0.59
312.18 K, 524.7 kPa, w2 = 0.45	14.2797 ± 0.61
312.19 K, 309.2 kPa, w2 = 0.45	8.04778 ± 0.56
312.23 K, 1062.8 kPa, w2 = 0.5	30.8635 ± 0.77
312.24 K, 293.9 kPa, w2 = 0.5	7.35936 ± 0.53
312.24 K, 386.2 kPa, w2 = 0.5	9.80302 ± 0.55
312.24 K, 650.6 kPa, w2 = 0.5	17.3937 ± 0.63
312.24 K, 835.8 kPa, w2 = 0.5	23.1694 ± 0.68
312.24 K, 1330.8 kPa, w2 = 0.5	41.1106 ± 0.81
312.25 K, 502.5 kPa, w2 = 0.5	13.0579 ± 0.59
315.01 K, 615.4 kPa, w2 = 0.65	14.1721 ± 0.52
315.01 K, 795.5 kPa, w2 = 0.65	18.8451 ± 0.56
315.01 K, 1017.2 kPa, w2 = 0.65	25.0585 ± 0.63
315.01 K, 1280.7 kPa, w2 = 0.65	33.3212 ± 0.68
315.02 K, 274.4 kPa, w2 = 0.65	6.0676 ± 0.45
315.02 K, 360.8 kPa, w2 = 0.65	8.015 ± 0.47
315.02 K, 472.6 kPa, w2 = 0.65	10.6578 ± 0.49
315.06 K, 855 kPa, w2 = 0.55	22.0047 ± 0.62
315.06 K, 1090.2 kPa, w2 = 0.55	29.2605 ± 0.7
315.06 K, 1366.4 kPa, w2 = 0.55	38.9077 ± 0.77
315.07 K, 509.9 kPa, w2 = 0.55	12.4444 ± 0.54
315.07 K, 663.2 kPa, w2 = 0.55	16.5479 ± 0.57
315.08 K, 389.6 kPa, w2 = 0.55	9.3584 ± 0.51
315.09 K, 296.5 kPa, w2 = 0.55	7.0377 ± 0.5
315.09 K, 1068.9 kPa, w2 = 0.6	27.4868 ± 0.67
315.1 K, 289.6 kPa, w2 = 0.6	6.6116 ± 0.48
315.1 K, 498.6 kPa, w2 = 0.6	11.6903 ± 0.51
315.1 K, 648.9 kPa, w2 = 0.6	15.5452 ± 0.55
315.1 K, 837.4 kPa, w2 = 0.6	20.6708 ± 0.59
315.1 K, 1341.8 kPa, w2 = 0.6	36.5492 ± 0.73
315.11 K, 380.8 kPa, w2 = 0.6	8.7915 ± 0.49
315.98 K, 1580.4 kPa, w2 = 0.5	50.2225 ± 0.93
316.02 K, 947.3 kPa, w2 = 0.4	28.0242 ± 0.74
316.02 K, 1201.7 kPa, w2 = 0.4	37.3297 ± 0.85
316.03 K, 251.6 kPa, w2 = 0.4	6.68246 ± 0.56
316.03 K, 331.4 kPa, w2 = 0.4	8.9013 ± 0.57
316.03 K, 434.8 kPa, w2 = 0.4	11.857 ± 0.59
316.03 K, 568 kPa, w2 = 0.4	15.7941 ± 0.62
316.03 K, 737 kPa, w2 = 0.4	21.0384 ± 0.67
316.03 K, 1496.5 kPa, w2 = 0.4	49.7241 ± 0.93
316.07 K, 1279.9 kPa, w2 = 0.5	37.6931 ± 0.83
316.09 K, 1628 kPa, w2 = 0.45	55.7253 ± 1
316.11 K, 1015.3 kPa, w2 = 0.5	28.294 ± 0.71
316.11 K, 1322.4 kPa, w2 = 0.45	41.8324 ± 0.91
316.12 K, 496.6 kPa, w2 = 0.45	13.2868 ± 0.61
316.12 K, 641.4 kPa, w2 = 0.45	17.6986 ± 0.64
316.12 K, 825.1 kPa, w2 = 0.45	23.5754 ± 0.7
316.12 K, 1051.5 kPa, w2 = 0.45	31.4039 ± 0.78
316.13 K, 382.7 kPa, w2 = 0.45	9.97465 ± 0.58
316.13 K, 614 kPa, w2 = 0.5	15.945 ± 0.59
316.13 K, 793.6 kPa, w2 = 0.5	21.2396 ± 0.64
316.14 K, 359.6 kPa, w2 = 0.5	8.98623 ± 0.54
316.14 K, 471.1 kPa, w2 = 0.5	11.9702 ± 0.56
319.94 K, 1816.9 kPa, w2 = 0.4	64.6378 ± 1.1
319.97 K, 1488.2 kPa, w2 = 0.4	48.5219 ± 0.98
319.98 K, 935.7 kPa, w2 = 0.4	27.3455 ± 0.72
319.98 K, 1189.8 kPa, w2 = 0.4	36.4256 ± 0.82
319.99 K, 326.1 kPa, w2 = 0.4	8.68561 ± 0.57
319.99 K, 428.1 kPa, w2 = 0.4	11.5696 ± 0.58
319.99 K, 559.5 kPa, w2 = 0.4	15.4113 ± 0.61
319.99 K, 726.9 kPa, w2 = 0.4	20.5286 ± 0.66
320 K, 1619.8 kPa, w2 = 0.5	49.4434 ± 0.88
320.03 K, 1304.5 kPa, w2 = 0.5	37.1152 ± 0.79
320.05 K, 1030.2 kPa, w2 = 0.5	27.8617 ± 0.68
320.07 K, 802.1 kPa, w2 = 0.5	20.9155 ± 0.61
320.08 K, 360.7 kPa, w2 = 0.5	8.84905 ± 0.52
320.08 K, 473.5 kPa, w2 = 0.5	11.7874 ± 0.54
320.08 K, 618.5 kPa, w2 = 0.5	15.7015 ± 0.57
320.08 K, 1320 kPa, w2 = 0.45	39.4284 ± 0.84
320.08 K, 1636.4 kPa, w2 = 0.45	52.5203 ± 0.93
320.09 K, 814.3 kPa, w2 = 0.45	22.2206 ± 0.65
320.09 K, 1044.1 kPa, w2 = 0.45	29.5994 ± 0.72
320.1 K, 367.3 kPa, w2 = 0.45	9.40149 ± 0.55
320.1 K, 481.7 kPa, w2 = 0.45	12.5232 ± 0.57
320.1 K, 628.6 kPa, w2 = 0.45	16.6813 ± 0.6

— the NIST ThermoML archive (doi:10.1016/j.jct.2013.10.031)
